From the OligoGym collection come the findings set out here.

“And” between values parts separate entries of the source, which are not always exact repeats. Identical values can stand only once. After the bases stand the sugars from the 5' end (letter, count) and the backbone: PS all phosphorothioate, else s phosphorothioate and o phosphodiester by linkage. Methylation of C is not given here. e = 2'-O-(2-methoxyethyl) (MOE); k = constrained ethyl (cEt); d = 2'-deoxy (DNA)

The target of the series is IRF4. To be noted: ASO.

Consider CCGCAGAGAGCTAGCA (sugars k3 d10 k3, PS), for which the target mRNA inhibition (SK-MEL-28, 4 µM) was -6%.

Regarding CCGCAGCCCAAAGGCT (sugars k3 d10 k3, PS), under “MM.1R, 1 µM”, the target mRNA inhibition came out at 4%.

As to CCGCGCTCATGCCGAA (sugars k3 d10 k3, PS), under “SK-MEL-28, 4 µM”, the target mRNA inhibition is 45%.

As to CCGCTGAGAGCCGAGG (sugars k3 d10 k3, PS), the target mRNA inhibition (SK-MEL-28, 4 µM) is -4%.

On to CCGGACCCCGGAGCAG (sugars k3 d10 k3, PS), for which the target mRNA inhibition (SK-MEL-28, 4 µM) is -24%.

With CCGTCCGCGCCCGCGC (sugars k3 d10 k3, PS), the target mRNA inhibition (SK-MEL-28, 4 µM) came to 61%.

Turning to CCGTGGTGAGCAAACG (sugars k3 d10 k3, PS), the target mRNA inhibition (SK-MEL-28, 4 µM) is 32%.

As to CCTAAGTACCTGAAAT (sugars k3 d10 k3, PS), the target mRNA inhibition (SK-MEL-28, 4 µM) was determined as 11%.

As to CCTAATCTACAACAAA (sugars k3 d10 k3, PS), for the setting “SK-MEL-28, 4 µM”, the target mRNA inhibition was determined as 15%.

Regarding CCTATCACTGCCAAGT (sugars k3 d10 k3, PS), the target mRNA inhibition (MM.1R, 1 µM) is -3%.

Turning to CCTATGCTGAACCCCA (sugars k3 d10 k3, PS), the target mRNA inhibition (MM.1R, 1 µM) is -12%.

CCTCAAAGTCATTGCT (sugars k3 d10 k3, PS): the target mRNA inhibition (SK-MEL-28, 4 µM) came out at 21%.

As for CCTCACTACAGAGCCC (sugars k3 d10 k3, PS), the target mRNA inhibition (SK-MEL-28, 4 µM) is 24%.

Consider “CCTCAGTTTGTGAAGC (sugars e1 k2 d9 k2 e2, PS)”, for which the target mRNA inhibition (MM.1R, 1 µM) stood at 11%.

With “CCTCAGTTTGTGAAGC (sugars k3 d9 k3 e1, PS)”, the target mRNA inhibition (MM.1R, 1 µM) is 2%.

In the case of CCTCAGTTTGTGAAGC (sugars k3 d10 k3, PS), the target mRNA inhibition (SK-MEL-28, 4 µM) was 69%.

Regarding CCTCATTCACAACTAG (sugars k3 d10 k3, PS), the target mRNA inhibition (MM.1R, 1 µM) worked out at 5%.

As to CCTCCATTCTAACAGA (sugars k3 d10 k3, PS), the target mRNA inhibition (SK-MEL-28, 4 µM) is -18%.

With CCTCTGAGCAGAACGA (sugars k3 d10 k3, PS), for the setting “SK-MEL-28, 4 µM”, the target mRNA inhibition came to 76%.

In the case of CCTGAGACAGACTTCC (sugars k3 d10 k3, PS), where the note is “SK-MEL-28, 4 µM”, the target mRNA inhibition worked out at 55%.

With CCTGATGCCTCCGCCG (sugars k3 d10 k3, PS), for the setting “MM.1R, 1 µM”, the target mRNA inhibition was determined as 6%.

Take CCTGTAGTATGAGAAA (sugars k3 d10 k3, PS): the target mRNA inhibition (SK-MEL-28, 4 µM) came out at 57%.

On to CCTGTGGTGGAACTCT (sugars k3 d10 k3, PS), for which the target mRNA inhibition (SK-MEL-28, 4 µM) stood at 27%.

For the sequence CCTTAACCAATCCCAA (sugars k3 d10 k3, PS), the target mRNA inhibition (SK-MEL-28, 4 µM) is 43%.

For CCTTAAGCTATTTGGT (sugars k3 d10 k3, PS), the target mRNA inhibition (MM.1R, 1 µM) was -786%.

As for CCTTCAGATTTACACC (sugars k3 d10 k3, PS), under “MM.1R, 1 µM”, the target mRNA inhibition was -9%.

Regarding CGAAAAGACTGGAGTG (sugars k3 d10 k3, PS), the target mRNA inhibition (MM.1R, 1 µM) turned out to be 26%.

With CGAAGAATTTTAGCAT (sugars k3 d10 k3, PS), the target mRNA inhibition (SK-MEL-28, 4 µM) came to 58%.

Regarding CGAATAGGACCCCTAT (sugars k3 d10 k3, PS), the target mRNA inhibition (SK-MEL-28, 4 µM) stood at 9%.

As for CGACAACTTTCCTGAA (sugars k3 d10 k3, PS), the target mRNA inhibition (SK-MEL-28, 4 µM) came to 21%.

For CGACAGTCCGGTTAGC (sugars k3 d10 k3, PS), the target mRNA inhibition (SK-MEL-28, 4 µM) is 11%.

With CGCAAGTCTACAGCCC (sugars k3 d10 k3, PS), the target mRNA inhibition by setting is: (MM.1R, 0.0625 µM) 0%; (MM.1R, 0.074 µM) -7%; (MM.1R, 0.222 µM) -9%; (MM.1R, 0.25 µM) 1%; (MM.1R, 0.666 µM) -9%; (MM.1R, 1 µM) 6%. Also, the target mRNA inhibition worked out at 8% (MM.1R, 2 µM); 12% (MM.1R, 4 µM); 59% (SK-MEL-28, 4 µM).

For the sequence CGCATTGCTAGATTCT (sugars k3 d10 k3, PS), the target mRNA inhibition by setting is: (MM.1R, 0.0625 µM) -9%; (MM.1R, 0.25 µM) 4%; (MM.1R, 1 µM) 37% and 27%; (MM.1R, 4 µM) 55%.

CGCCACATCAGCAGAC (sugars k3 d10 k3, PS): the target mRNA inhibition (SK-MEL-28, 4 µM) is 12%.

In the case of CGCCACCTGATGCCTC (sugars k3 d10 k3, PS), under “SK-MEL-28, 4 µM”, the target mRNA inhibition was 30%.

With CGCCAGCGGGTGAGCA (sugars k3 d10 k3, PS), the target mRNA inhibition (MM.1R, 1 µM) came to 19%.

As to CGCCCAGGACCCGGCT (sugars k3 d10 k3, PS), the target mRNA inhibition (MM.1R, 1 µM) is -1%.

Regarding CGCCCATGAGTTGAAA (sugars k3 d10 k3, PS), the target mRNA inhibition (MM.1R, 1 µM) came out at 13%.

In the case of CGCCCTGGACTCGGAG (sugars k3 d10 k3, PS), the target mRNA inhibition (SK-MEL-28, 4 µM) stood at 36%.

For the sequence CGCGGTTGTAGTCCTG (sugars k3 d10 k3, PS), for the setting “SK-MEL-28, 4 µM”, the target mRNA inhibition came to 44%.

Turning to CGCTACAGCTTCTGCA (sugars k3 d10 k3, PS), the target mRNA inhibition (SK-MEL-28, 4 µM) amounted to 20%.

Regarding CGCTCAAAGACCAGCT (sugars k3 d10 k3, PS), the target mRNA inhibition (SK-MEL-28, 4 µM) was found to be 56%.
